From patent publication US20240400555A1 (Initial Therapeutics, Inc., priority 2023, published 2024)

Test system: MV-4-11 cells
Experiment: Cell Viability Assay in MV-4-11 Cells
Format: cell-based
Conditions: Homo sapiens, MV4-11, 72 h, MV-4-11 cells, 72 h, Cell-Titer Glo; read-out: IC50
Summary of the method: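 Luminescent ATP read-out (CellTiter-Glo) after 72 h compound treatment of MV-4-11 leukaemia cells (7,000 per well, IMDM plus 10% FBS). Values expressed relative to DMSO control and derived by four-parameter non-linear regression.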

| Structure (SMILES) | IC50 [nM] |
| --- | --- |
| Cc1cccc2ccnc(N(C(=O)c3ccc(Nc4nccc(O)n4)cc3F)[C@@H]3CCCNC3)c12 [Example 735, (R)-2-fluoro-4-((4-hydroxypyrimidin-2-yl)amino)-N-(8-methylisoquinolin-1-yl)-N-(piperidin-3-yl)benzamide] | > 6200 |
| Cc1cccc2ccnc(N(C(=O)c3ccc(Nc4nccc(CCO)n4)cc3F)[C@@H]3CCCNC3)c12 [Example 736, (R)-2-fluoro-4-((4-(2-hydroxyethyl)pyrimidin-2-yl)amino)-N-(8-methylisoquinolin-1-yl)-N-(piperidin-3-yl)benzamide] | 220 |
| Cc1cc(C2=NOC(C)(C)C2=O)ccc1C(=O)N(c1nccc2sc(C#CCO)cc12)[C@@H]1CCCNC1 [Example 737, (R)-4-(5,5-dimethyl-4-oxo-4,5-dihydroisoxazol-3-yl)-N-(2-(3-hydroxyprop-1-yn-1-yl)thieno[3,2-c]pyridin-4-yl)-2-methyl-N-(piperidin-3-yl)benzamide] | 2100 |
| O=C(c1ccc(Nc2ncccn2)cc1F)N(c1nccc2cc(Nc3ncccn3)ccc12)[C@@H]1CCCNC1 [Example 738, (R)-2-fluoro-N-(piperidin-3-yl)-4-(pyrimidin-2-ylamino)-N-(6-(pyrimidin-2-ylamino)isoquinolin-1-yl)benzamide] | 3700 |
| Cc1cc2c(N(C(=O)c3ccc(-n4nnc5cccnc54)cc3F)[C@@H]3CCCNC3)nccc2s1 [Example 739, (R)-4-(3H-[1,2,3]triazolo[4,5-b]pyridin-3-yl)-2-fluoro-N-(2-methylthieno[3,2-c]pyridin-4-yl)-N-(piperidin-3-yl)benzamide] | 650 |
| O=C(c1ccc(-n2nnc3cccnc32)cc1F)N(c1nccc2sc(C3CC3)cc12)[C@@H]1CCCNC1 [Example 740, (R)-4-(3H-[1,2,3]triazolo[4,5-b]pyridin-3-yl)-N-(2-cyclopropylthieno[3,2-c]pyridin-4-yl)-2-fluoro-N-(piperidin-3-yl)benzamide] | 600 |
| Cc1cccc2ccnc(N(C(=O)c3ccc(Nc4nccc(CN5CCOCC5)n4)cc3F)[C@@H]3CCCNC3)c12 [Example 741, (R)-2-fluoro-N-(8-methylisoquinolin-1-yl)-4-((4-(morpholinomethyl)pyrimidin-2-yl)amino)-N-(piperidin-3-yl)benzamide] | 310 |
| COCCN(C)c1ccnc(Nc2ccc(C(=O)N(c3nccc4cccc(C)c34)[C@@H]3CCCNC3)c(F)c2)n1 [Example 742, (R)-2-fluoro-4-((4-((2-methoxyethyl)(methyl)amino)pyrimidin-2-yl)amino)-N-(8-methylisoquinolin-1-yl)-N-(piperidin-3-yl)benzamide] | 82 |
| Cc1cccc2ccnc(N(C(=O)c3ccc(Nc4nccc(N(C)CCO)n4)cc3F)[C@@H]3CCCNC3)c12 [Example 743, (R)-2-fluoro-4-((4-((2-hydroxyethyl)(methyl)amino)pyrimidin-2-yl)amino)-N-(8-methylisoquinolin-1-yl)-N-(piperidin-3-yl)benzamide] | 160 |
| COCCNc1ccnc(Nc2ccc(C(=O)N(c3nccc4cccc(C)c34)[C@@H]3CCCNC3)c(F)c2)n1 [Example 744, (R)-2-fluoro-4-((4-((2-methoxyethyl)amino)pyrimidin-2-yl)amino)-N-(8-methylisoquinolin-1-yl)-N-(piperidin-3-yl)benzamide] | 69 |
| CCCN(C)c1ccnc(Nc2ccc(C(=O)N(c3nccc4cccc(C)c34)[C@@H]3CCCNC3)c(F)c2)n1 [Example 745, (R)-2-fluoro-4-((4-(methyl(propyl)amino)pyrimidin-2-yl)amino)-N-(8-methylisoquinolin-1-yl)-N-(piperidin-3-yl)benzamide] | 160 |
| CCCNc1ccnc(Nc2ccc(C(=O)N(c3nccc4cccc(C)c34)[C@@H]3CCCNC3)c(F)c2)n1 [Example 746, (R)-2-fluoro-N-(8-methylisoquinolin-1-yl)-N-(piperidin-3-yl)-4-((4-(propylamino)pyrimidin-2-yl)amino)benzamide] | 33 |
| Cc1cc(C(=O)N(c2nccc3cccc(C)c23)[C@@H]2CCCNC2)ccc1Nc1ncccn1 [Example 747, (R)-3-methyl-N-(8-methylisoquinolin-1-yl)-N-(piperidin-3-yl)-4-(pyrimidin-2-ylamino)benzamide] | 2700 |
| Cc1cccc2ccnc(N(C(=O)c3ccc(Nc4nccc(/C=C/CO)n4)cc3F)[C@@H]3CCCNC3)c12 [Example 748, (R,E)-2-fluoro-4-((4-(3-hydroxyprop-1-en-1-yl)pyrimidin-2-yl)amino)-N-(8-methylisoquinolin-1-yl)-N-(piperidin-3-yl)benzamide] | 92 |
| COC/C=C/c1ccnc(Nc2ccc(C(=O)N(c3nccc4cccc(C)c34)[C@@H]3CCCNC3)c(F)c2)n1 [Example 749, (R,E)-2-fluoro-4-((4-(3-methoxyprop-1-en-1-yl)pyrimidin-2-yl)amino)-N-(8-methylisoquinolin-1-yl)-N-(piperidin-3-yl)benzamide] | 140 |
| COCC#Cc1ccnc(Nc2ccc(C(=O)N(c3nccc4cccc(C)c34)[C@@H]3CCCNC3)c(F)c2)n1 [Example 751, (R)-2-fluoro-4-((4-(3-methoxyprop-1-yn-1-yl)pyrimidin-2-yl)amino)-N-(8-methylisoquinolin-1-yl)-N-(piperidin-3-yl)benzamide] | 190 |

| Structure (SMILES) | IC50 [nM] |
| --- | --- |
| COCCCc1ccnc(Nc2ccc(C(=O)N(c3nccc4cccc(C)c34)[C@@H]3CCCNC3)c(F)c2)n1 [Example 752, (R)-2-fluoro-4-((4-(3-methoxypropyl)pyrimidin-2-yl)amino)-N-(8-methylisoquinolin-1-yl)-N-(piperidin-3-yl)benzamide] | 190 |
| CCc1nc(Nc2ccc(C(=O)N(c3nccc4cccc(C)c34)[C@@H]3CCCNC3)c(F)c2)ncc1F [Example 753, (R)-4-((4-ethyl-5-fluoropyrimidin-2-yl)amino)-2-fluoro-N-(8-methylisoquinolin-1-yl)-N-(piperidin-3-yl)benzamide] | 170 |
| Cc1nc(Nc2ccc(C(=O)N(c3nccc4cccc(C)c34)[C@@H]3CCCNC3)c(F)c2)ncc1F [Example 754, (R)-2-fluoro-4-((5-fluoro-4-methylpyrimidin-2-yl)amino)-N-(8-methylisoquinolin-1-yl)-N-(piperidin-3-yl)benzamide] | 340 |
| Cc1nnc(-c2ccc(C(=O)N(c3nccc4cc(Cl)cc(C)c34)[C@@H]3CCCNC3)cc2)s1 [Example 755, (R)—N-(6-chloro-8-methylisoquinolin-1-yl)-4-(5-methyl-1,3,4-thiadiazol-2-yl)-N-(piperidin-3-yl)benzamide] | 87 |
| Cc1cc2c(N(C(=O)c3ccc(-n4cnc5ccccc54)cc3F)[C@@H]3CCCNC3)nccc2s1 [Example 756, (R)-4-(1H-benzo[d]imidazol-1-yl)-2-fluoro-N-(2-methylthieno[3,2-c]pyridin-4-yl)-N-(piperidin-3-yl)benzamide] | > 6300 |
| Cc1nnc(-c2ccc(C(=O)N(c3nccc4scc(C)c34)[C@@H]3CCCNC3)c(C)c2)s1 [Example 757, 2-methyl-4-(5-methyl-1,3,4-thiadiazol-2-yl)-N-(3-methylthieno[3,2-c]pyridin-4-yl)-N-[(3R)-3-piperidyl]benzamide] | 530 |
| Cc1csc2ccnc(N(C(=O)c3ccc(-c4cn(C)nn4)cc3Cl)[C@@H]3CCCNC3)c12 [Example 758, (R)-2-chloro-4-(1-methyl-1H-1,2,3-triazol-4-yl)-N-(3-methylthieno[3,2-c]pyridin-4-yl)-N-(piperidin-3-yl)benzamide] | 170 |
| Cn1cc(-c2ccc(C(=O)N(c3nccc4c(F)cccc34)[C@@H]3CCCNC3)c(F)c2)nn1 [Example 759, (R)-2-fluoro-N-(5-fluoroisoquinolin-1-yl)-4-(1-methyl-1H-1,2,3-triazol-4-yl)-N-(piperidin-3-yl)benzamide] | 520 |
| Cc1nnc(-c2ccc(C(=O)N(c3nccc4c(F)ccc(C)c34)[C@@H]3CCCNC3)c(F)c2)s1 [Example 760, (R)-2-fluoro-N-(5-fluoro-8-methylisoquinolin-1-yl)-4-(5-methyl-1,3,4-thiadiazol-2-yl)-N-(piperidin-3-yl)benzamide] | 160 |
| Cc1ccc(F)c2ccnc(N(C(=O)c3ccc(-c4cn(C)nn4)cc3F)[C@@H]3CCCNC3)c12 [Example 761, (R)-2-fluoro-N-(5-fluoro-8-methylisoquinolin-1-yl)-4-(1-methyl-1H-1,2,3-triazol-4-yl)-N-(piperidin-3-yl)benzamide] | 69 |
| COc1ccc2c(N(C(=O)c3ccc(-c4nnc(C)s4)cc3F)[C@@H]3CCCNC3)nccc2c1 [Example 762, (R)-2-fluoro-N-(6-methoxyisoquinolin-1-yl)-4-(5-methyl-1,3,4-thiadiazol-2-yl)-N-(piperidin-3-yl)benzamide] | 620 |
| Cc1cc(Cl)cc2ccnc(N(C(=O)c3ccc(-c4nnn(C)c4C)cc3F)[C@@H]3CCCNC3)c12 [Example 763, (R)—N-(6-chloro-8-methylisoquinolin-1-yl)-4-(1,5-dimethyl-1H-1,2,3-triazol-4-yl)-2-fluoro-N-(piperidin-3-yl)benzamide] | 34 |
| Cc1nnc(-c2ccc(C(=O)N(c3nccc4cc(Cl)cc(C)c34)[C@@H]3CCCNC3)c(Cl)c2)o1 [Example 764, (R)-2-chloro-N-(6-chloro-8-methylisoquinolin-1-yl)-4-(5-methyl-1,3,4-oxadiazol-2-yl)-N-(piperidin-3-yl)benzamide] | > 7500 |
| Cc1nnc(-c2ccc(C(=O)N(c3nccc4cc(Cl)cc(C)c34)[C@@H]3CCCNC3)c(F)c2)o1 [Example 765, (R)—N-(6-chloro-8-methylisoquinolin-1-yl)-2-fluoro-4-(5-methyl-1,3,4-oxadiazol-2-yl)-N-(piperidin-3-yl)benzamide] | 86 |
| [2H]C([2H])([2H])c1nnc(-c2ccc(C(=O)N(c3nccc4cc(Cl)cc(C)c34)[C@@H]3CCCNC3)c(F)c2)s1 [Example 766, (R)—N-(6-chloro-8-methylisoquinolin-1-yl)-2-fluoro-4-(5-(methyl-d3)-1,3,4-thiadiazol-2-yl)-N-(piperidin-3-yl)benzamide] | 100 |
